Test systems include 786-0; A498; CAKI-1; EKVX; KM12; MCF7; NCI/ADR-RES; OVCAR-3; OVCAR-8; RPMI-8226; RXF 393; SF-268; SF-295; SK-MEL-28; SK-MEL-2; SNB-19; SR; TK-10; UACC-257; UACC-62.
Common to all, as to assay: inhibition of tumour cell growth, NCI panel, 48 h

Molecules are shown by their SMILES.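 In this assay, cells in 96-well plates receive the compound at five concentrations for 48 hours. Endpoints are linearly interpolated between the surrounding concentrations. Here, GI50 denotes the concentration required for 50% inhibition of growth.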 The source made the active and inactive calls. No stated cut-off is given here; in the data, active = GI50 up to about 1.1 µM and inactive = higher.

Regarding `N#CC1=C(N)OC2=C(CCCc3ccc([N+](=O)[O-])cc32)C1c1ccccc1` (configuration not stated), the GI50 in the experiment on 786-0 was 9.98 µM (inactive); with A498 it was 2.76 µM (inactive); in the experiment on CAKI-1, 9.25 µM (inactive); in the experiment on EKVX, 6.19 µM (inactive); in the experiment with KM12 it was 3.15 µM (inactive); with MCF7, 3.45 µM (inactive). For the same molecule, the GI50 in the experiment on NCI/ADR-RES was 2.38 µM (inactive); with OVCAR-3 it was 2.21 µM (inactive); in the experiment on OVCAR-8 it was 7.48 µM (inactive); in the experiment on RPMI-8226, 2.9 µM (inactive); in the experiment with RXF 393 it was 4.18 µM (inactive); in the experiment on SF-268 it was 5.41 µM (inactive). For the same molecule, the GI50 was 3.21 µM (inactive) with SF-295; 5.82 µM (inactive) in the experiment with SK-MEL-28; 4.58 µM (inactive) with SK-MEL-2; 5.86 µM (inactive) with SNB-19; 2.36 µM (inactive) in the experiment with SR; 12.4 µM (inactive) in the experiment on TK-10. Further, the GI50 with UACC-257 is 5.13 µM (inactive); with UACC-62, 1.98 µM (inactive).
With `O=C1c2c(nc3ccccc3c2-c2ccccc2)CN1Nc1ccccn1`, the GI50 in the experiment with 786-0 is > 74.5 µM (inactive); with A498 it was 5.32 µM (inactive); in the experiment on CAKI-1 it was 47.3 µM (inactive); in the experiment with EKVX, 69 µM (inactive); with KM12, 76 µM (inactive); in the experiment on MCF7 it was > 70 µM (inactive). The GI50 with NCI/ADR-RES is 43 µM (inactive); with OVCAR-3 it was 75 µM (inactive); in the experiment with OVCAR-8, 43.5 µM (inactive); with RPMI-8226, 76.9 µM (inactive); with RXF 393 it was 53 µM (inactive); in the experiment with SF-268 it was 75.9 µM (inactive). Also, the GI50 with SF-295 is 60.1 µM (inactive); with SK-MEL-28 it was > 100 µM (inactive); with SK-MEL-2, > 100 µM (inactive); with SNB-19 it was > 86.5 µM (inactive); in the experiment with SR it was 58.1 µM (inactive); with TK-10 it was > 83 µM (inactive). In addition, the figures for the GI50 with UACC-257 and with UACC-62 were > 92 µM (inactive) and > 83 µM (inactive), respectively.
For the molecule `CC(C)(C)OC(=O)N(CCCN)CCCCN`, the GI50 in the experiment with 786-0, with A498, with CAKI-1, in the experiment on EKVX, in the experiment on KM12 and in the experiment on MCF7 was > 100 µM (inactive) throughout. Also, the GI50 in the experiment with NCI/ADR-RES, with OVCAR-3, with OVCAR-8, in the experiment with RPMI-8226, in the experiment with RXF 393 and in the experiment on SF-268 was > 100 µM (inactive) throughout. For the same molecule, the GI50 with SF-295, in the experiment with SK-MEL-28, in the experiment on SK-MEL-2, with SNB-19, with SR and with TK-10 was > 100 µM (inactive) each time. Besides, the GI50 in the experiment on UACC-257 and with UACC-62 was > 100 µM (inactive) in each case.
With `O=C1/C(=C/c2cccc(O)c2)COc2ccccc21`, the GI50 was 4.69 µM (inactive) with 786-0; 20.3 µM (inactive) in the experiment with A498; 3.44 µM (inactive) in the experiment on CAKI-1; 16.5 µM (inactive) in the experiment with EKVX; 2.15 µM (inactive) in the experiment on KM12; 3.63 µM (inactive) with MCF7. Also, the GI50 in the experiment on NCI/ADR-RES is 2.17 µM (inactive); in the experiment with OVCAR-3 it was 2.01 µM (inactive); in the experiment with OVCAR-8 it was 7.38 µM (inactive); in the experiment on RPMI-8226 it was 1.15 µM (inactive); with RXF 393 it was 10.1 µM (inactive); in the experiment on SF-268 it was 18.4 µM (inactive). The GI50 in the experiment with SF-295 is 15.7 µM (inactive); with SK-MEL-28 it was 4.45 µM (inactive); with SK-MEL-2, 18 µM (inactive); with SNB-19 it was 7.11 µM (inactive); with SR, 2.16 µM (inactive); with TK-10 it was 15.4 µM (inactive). Further, the GI50 in the experiment on UACC-257 is 2.64 µM (inactive); in the experiment on UACC-62, 3.88 µM (inactive).
For `CN(C)CCCCN1c2ccccc2Sc2cc(N=[N+]=[N-])ccc21`, the GI50 is 1.69 µM (inactive) in the experiment with 786-0; 10 µM (inactive) in the experiment with A498; 1.84 µM (inactive) in the experiment on CAKI-1; 4.15 µM (inactive) in the experiment on EKVX; 1.73 µM (inactive) with KM12; 1.85 µM (inactive) with MCF7. In addition, the GI50 with NCI/ADR-RES was 1.75 µM (inactive); in the experiment on OVCAR-3 it was 1.89 µM (inactive); with OVCAR-8, 1.69 µM (inactive); in the experiment on RPMI-8226 it was 2.38 µM (inactive); with RXF 393, 3.3 µM (inactive); with SF-268, 2.38 µM (inactive). Moreover, the GI50 in the experiment with SF-295 was 1.96 µM (inactive); in the experiment on SK-MEL-28 it was 1.82 µM (inactive); in the experiment with SK-MEL-2, 1.97 µM (inactive); in the experiment with SNB-19, 5.75 µM (inactive); with SR it was 2.54 µM (inactive); in the experiment with TK-10 it was 2.02 µM (inactive). The GI50 is 1.83 µM (inactive) in the experiment on UACC-257 and 1.85 µM (inactive) with UACC-62.
As for `Cc1sc2c(c1C)/C(=N\O)c1cccn1-2`, the GI50 was 20.1 µM (inactive) in the experiment with 786-0; 24.2 µM (inactive) in the experiment with A498; 32.6 µM (inactive) with CAKI-1; 22.2 µM (inactive) with EKVX; 31.6 µM (inactive) with KM12; 39.1 µM (inactive) in the experiment on MCF7. The GI50 in the experiment on NCI/ADR-RES was 53.3 µM (inactive); with OVCAR-3, 42.9 µM (inactive); in the experiment on OVCAR-8 it was 45.8 µM (inactive); with RPMI-8226, 37.8 µM (inactive); in the experiment on RXF 393, 23.2 µM (inactive); with SF-268 it was 34 µM (inactive). The GI50 is 54.7 µM (inactive) with SF-295; 93.3 µM (inactive) in the experiment with SK-MEL-28; 45.2 µM (inactive) in the experiment with SK-MEL-2; 23.3 µM (inactive) in the experiment on SNB-19; 22.6 µM (inactive) in the experiment on SR; 43.6 µM (inactive) in the experiment with TK-10. For the same molecule, the GI50 with UACC-257 is 93.5 µM (inactive); in the experiment with UACC-62, 95.7 µM (inactive).
With `O=C1OC(CS(=O)(=O)c2ccccc2)CC1O` (configuration not stated), the GI50 in the experiment with 786-0, with A498, in the experiment with CAKI-1, in the experiment on EKVX, in the experiment with KM12 and with MCF7 was > 100 µM (inactive) each time. In addition, the GI50 in the experiment on NCI/ADR-RES, in the experiment on OVCAR-3, in the experiment on OVCAR-8, with RPMI-8226, in the experiment with RXF 393 and in the experiment on SF-268 was > 100 µM (inactive) in each case. The GI50 in the experiment with SF-295, in the experiment with SK-MEL-28, in the experiment with SK-MEL-2, in the experiment on SNB-19, with SR and with TK-10 was > 100 µM (inactive) each time. For the same molecule, the GI50 in the experiment on UACC-257 is > 100 µM (inactive); in the experiment on UACC-62, 41 µM (inactive).
For the molecule `Cc1ccccc1C1CC(=O)CC(c2ccccc2C)C12C(=O)NC(=S)NC2=O` (configuration not stated), the GI50 in the experiment on 786-0 is 34.9 µM (inactive); in the experiment with A498, 22.9 µM (inactive); in the experiment on CAKI-1, 58.2 µM (inactive); with EKVX it was 47.2 µM (inactive); in the experiment with KM12, 22.1 µM (inactive); with MCF7, 32 µM (inactive). The GI50 with NCI/ADR-RES was 30.3 µM (inactive); in the experiment with OVCAR-3, 29 µM (inactive); in the experiment with RPMI-8226, 12.6 µM (inactive); in the experiment with RXF 393, 19.6 µM (inactive); with SF-268 it was 32.7 µM (inactive); with SF-295 it was 24.8 µM (inactive). Moreover, the GI50 in the experiment with SK-MEL-28 is 20.2 µM (inactive); with SK-MEL-2, 13.4 µM (inactive); in the experiment with SNB-19 it was 43.4 µM (inactive); in the experiment on SR, 37.2 µM (inactive); in the experiment on TK-10, 39.4 µM (inactive); in the experiment on UACC-257, 22 µM (inactive). Besides, the GI50 in the experiment on UACC-62 was 18.7 µM (inactive).
As to `C=C(C1=CC(=O)C(C)(C)O1)[C@@H]1CC=C([C@@H]2CC[C@H]3[C@@]2(C)CC[C@H]2C(C)(C)C(=O)[C@H](OC(=O)CC(C)(O)CC(=O)O)C[C@]32C)[C@H](O)O1` (some centres not stated), the GI50 with 786-0 is 11.1 µM (inactive); in the experiment on A498, 13 µM (inactive); with CAKI-1 it was 17.2 µM (inactive); in the experiment on EKVX it was 15.3 µM (inactive); with KM12, 14.1 µM (inactive); with MCF7, 9.84 µM (inactive). For the same molecule, the GI50 was 19 µM (inactive) in the experiment on NCI/ADR-RES; 11.9 µM (inactive) in the experiment with OVCAR-3; 13.4 µM (inactive) in the experiment on OVCAR-8; 2.48 µM (inactive) in the experiment with RPMI-8226; 0.106 µM (active) with RXF 393; 10.9 µM (inactive) with SF-268. Also, the GI50 was 36.4 µM (inactive) in the experiment with SF-295; 12.9 µM (inactive) with SK-MEL-2; 25.4 µM (inactive) in the experiment with SNB-19; 12.6 µM (inactive) in the experiment with SR; 27.4 µM (inactive) in the experiment on TK-10; 15.2 µM (inactive) with UACC-257. The GI50 with UACC-62 is 12.1 µM (inactive).
On to `N=c1oc2c(Cl)cc(Cl)cc2cc1C(=O)Nc1ccccn1`, for which the GI50 is 27.5 µM (inactive) with 786-0; 40.1 µM (inactive) in the experiment with A498; > 100 µM (inactive) in the experiment with CAKI-1; 67.3 µM (inactive) in the experiment on EKVX; 13.9 µM (inactive) in the experiment on KM12; 29.2 µM (inactive) in the experiment on MCF7. For the same molecule, the GI50 in the experiment with NCI/ADR-RES is 66.4 µM (inactive); with OVCAR-3, 24.6 µM (inactive); with RPMI-8226, 22.3 µM (inactive); in the experiment with RXF 393, 19.8 µM (inactive); in the experiment on SF-268 it was 33 µM (inactive); with SF-295, 54.7 µM (inactive). Further, the GI50 is > 100 µM (inactive) with SK-MEL-28; 42.7 µM (inactive) in the experiment on SK-MEL-2; 34.7 µM (inactive) with SNB-19; 23.1 µM (inactive) in the experiment on SR; 34.5 µM (inactive) with TK-10; > 100 µM (inactive) in the experiment on UACC-257. Also, the GI50 with UACC-62 was 20.6 µM (inactive).
